Like-named read-outs stand apart in the source and are kept apart here.
Key:
human AhR (hAhR) = molecular target: T1, human AhR (hAhR) (Homo sapiens, UniProt P35869); test: AhR-responsive luciferase reporter gene assay in stably transfected human HG2L6.1c1 hepatoma cells; conditions: for maximal level of reporter gene induction: relative to TCDD
T1 sequence (P35869 11-848): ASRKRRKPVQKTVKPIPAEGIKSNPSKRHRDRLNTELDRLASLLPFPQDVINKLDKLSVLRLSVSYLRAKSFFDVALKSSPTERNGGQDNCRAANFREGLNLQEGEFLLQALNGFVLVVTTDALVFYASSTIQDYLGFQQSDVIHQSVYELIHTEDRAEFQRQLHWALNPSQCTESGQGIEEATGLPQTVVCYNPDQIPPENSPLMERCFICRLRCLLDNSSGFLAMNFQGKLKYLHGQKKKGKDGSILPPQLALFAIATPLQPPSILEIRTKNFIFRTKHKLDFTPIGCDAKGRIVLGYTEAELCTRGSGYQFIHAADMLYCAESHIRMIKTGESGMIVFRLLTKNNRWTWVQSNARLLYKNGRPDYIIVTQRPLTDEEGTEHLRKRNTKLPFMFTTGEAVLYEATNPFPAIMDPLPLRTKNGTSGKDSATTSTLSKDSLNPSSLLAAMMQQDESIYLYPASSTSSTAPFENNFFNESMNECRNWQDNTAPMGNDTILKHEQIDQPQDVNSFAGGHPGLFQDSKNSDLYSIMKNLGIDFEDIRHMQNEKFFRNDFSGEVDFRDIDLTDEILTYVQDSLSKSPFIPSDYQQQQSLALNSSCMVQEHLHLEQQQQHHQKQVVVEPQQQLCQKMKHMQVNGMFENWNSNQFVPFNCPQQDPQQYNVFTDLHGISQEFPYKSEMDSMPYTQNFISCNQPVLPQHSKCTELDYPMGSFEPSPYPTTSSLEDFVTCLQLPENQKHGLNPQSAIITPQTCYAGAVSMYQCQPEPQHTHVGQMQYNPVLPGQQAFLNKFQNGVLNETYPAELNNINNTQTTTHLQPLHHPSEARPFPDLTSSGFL
Protocol: (§1) AhR-dependent gene transcription was determined in (A) human HG2L6.1c.1 and (B) mouse H1L6.1c.3 hepatoma cell lines that contain a stably transfected AhR-responsive luciferase reporter gene. […] Luciferase activity (Relative Light Units (RLUs)) was normalized to the maximal induction observed with TCDD in each cell line. Values represent the mean ± SD of nine independent analyses.
(§2) Recombinant mouse (H1L6.1c3) and human (HG2L6.1c1) hepatoma cells containing a stably integrated AhR-responsive luciferase reporter gene plasmid (pGudLuc6.1) were plated (750,000 cells/well) in 96-well plates and incubated at 37 °C for 24 h prior to chemical treatment. Cells were incubated with DMSO (1% (v/v)) or the indicated concentration of test chemical in DMSO for 4 h, followed by visual inspection of the cells for toxicity, washing of the cells with phosphate-buffered saline (PBS), addition of 50 µL of passive lysis buffer (Promega) and lysis of cells for 20 min at room temperature with shaking [50]. Luciferase activity in each well was measured (integrating luminescence over 10 s with a 10 s delay) in an Orion microplate luminometer (Berthold Detection Systems, Bad Wildbad, Germany) following automatic injection of Promega stabilized luciferase reagent.
(§3) Analysis of statistical significance of differences between experimental values was conducted using Two-Way ANOVA and EC50s and IC50s were calculated using nonlinear regression (three parameter) analysis in GraphPad Prism v.7 (La Jolla, CA, USA).

mouse AhR (mAhR) = molecular target: T2, mouse AhR (mAhR) (Mus musculus, UniProt P30561); test: AhR-responsive luciferase reporter gene assay in stably transfected mouse H1L6.1c3 hepatoma cells; assay type: cell-based
T2 sequence (P30561 10-805): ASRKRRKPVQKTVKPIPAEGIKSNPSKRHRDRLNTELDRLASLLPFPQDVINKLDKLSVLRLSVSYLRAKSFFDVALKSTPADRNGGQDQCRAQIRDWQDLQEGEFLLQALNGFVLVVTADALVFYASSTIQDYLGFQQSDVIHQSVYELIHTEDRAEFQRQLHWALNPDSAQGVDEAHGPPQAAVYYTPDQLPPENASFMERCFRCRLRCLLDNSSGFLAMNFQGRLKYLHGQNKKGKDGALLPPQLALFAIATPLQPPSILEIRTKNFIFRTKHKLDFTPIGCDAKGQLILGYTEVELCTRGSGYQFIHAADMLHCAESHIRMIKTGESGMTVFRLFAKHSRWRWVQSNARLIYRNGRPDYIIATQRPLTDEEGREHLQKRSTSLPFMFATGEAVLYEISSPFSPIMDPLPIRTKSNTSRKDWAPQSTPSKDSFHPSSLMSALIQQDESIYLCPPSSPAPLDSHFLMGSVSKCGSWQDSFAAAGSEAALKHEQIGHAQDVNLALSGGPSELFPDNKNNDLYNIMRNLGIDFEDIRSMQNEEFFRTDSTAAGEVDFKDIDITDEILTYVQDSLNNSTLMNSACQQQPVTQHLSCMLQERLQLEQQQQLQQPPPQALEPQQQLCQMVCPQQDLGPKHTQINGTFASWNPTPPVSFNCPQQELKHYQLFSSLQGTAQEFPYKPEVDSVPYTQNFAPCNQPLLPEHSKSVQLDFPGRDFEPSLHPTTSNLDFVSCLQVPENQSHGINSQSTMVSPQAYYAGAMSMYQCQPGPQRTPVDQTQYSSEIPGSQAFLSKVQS
Protocol: as §1, §2, §3

AhR [1] = conditions: human hepatoma cells ref 23; cited from earlier work
mutant A349T mAhR = tested on: T3, mutant A349T mAhR; test: Transient transfection luciferase reporter assay in COS-1 cells, A349T mAhR; assay type: cell-based, mouse; conditions: COS-1 cells cotransfected with A349T mAhR; TCDD 10 nM, IR 1 µM, 18–20 h
T3 construct: contains a full-length mAhR cDNA in which the mouse PASB LBD was replaced; expressed in transfected cells; host or cells: COS-1
Protocol: (§4) Cells were lysed, and lysates were analyzed for firefly luciferase activity. […] Luciferase activity (relative light units; RLU) was measured and corrected for background (DMSO) and normalized to mAhR TCDD levels. Values represent the mean ± SD of nine individual replicate analyses.
(§5) COS-1 cells were plated at a density of 75,000 cells/well and allowed to attach overnight in a 24-well plate. Cells were transiently transfected (per well) with the following amounts per well: 2 µL Lipofectamine 2000 (Invitrogen, Carlsbad, CA, USA), 20 ng wild-type (mβAhR/pcDNA3) or mutant AhR expression plasmids (in pcDNA3.1), 20 ng of mβARNT/pcDNA3 or pcDNA3.1(+) and 200 ng pGudLuc6.1 [17].

hAhR = hAhR (Homo sapiens, UniProt P35869); conditions: COS-1 cells cotransfected with hAhR; TCDD 10 nM, IR 1 µM, 18–20 h
Protocol: as §4, §5

AhR [2] = conditions: mouse hepatoma cells ref 23; cited from earlier work
mAhR-hAhRLBD = mAhR-hAhRLBD (Mus musculus; Homo sapiens, UniProt P30561+P35869); conditions: COS-1 cells cotransfected with mAhR-hAhRLBD; TCDD 10 nM, IR 1 µM, 18–20 h
Protocol: as §4, §5

[3] = mouse H1L6.1c3 hepatoma cells, 4 h, mean ± SD of nine analyses, read-out: EC50 to stimulate luciferase reporter gene expression, Mouse

Sequence of mAhR-hAhRLBD (P30561 with tags, fused parts or gaps, one chain of several): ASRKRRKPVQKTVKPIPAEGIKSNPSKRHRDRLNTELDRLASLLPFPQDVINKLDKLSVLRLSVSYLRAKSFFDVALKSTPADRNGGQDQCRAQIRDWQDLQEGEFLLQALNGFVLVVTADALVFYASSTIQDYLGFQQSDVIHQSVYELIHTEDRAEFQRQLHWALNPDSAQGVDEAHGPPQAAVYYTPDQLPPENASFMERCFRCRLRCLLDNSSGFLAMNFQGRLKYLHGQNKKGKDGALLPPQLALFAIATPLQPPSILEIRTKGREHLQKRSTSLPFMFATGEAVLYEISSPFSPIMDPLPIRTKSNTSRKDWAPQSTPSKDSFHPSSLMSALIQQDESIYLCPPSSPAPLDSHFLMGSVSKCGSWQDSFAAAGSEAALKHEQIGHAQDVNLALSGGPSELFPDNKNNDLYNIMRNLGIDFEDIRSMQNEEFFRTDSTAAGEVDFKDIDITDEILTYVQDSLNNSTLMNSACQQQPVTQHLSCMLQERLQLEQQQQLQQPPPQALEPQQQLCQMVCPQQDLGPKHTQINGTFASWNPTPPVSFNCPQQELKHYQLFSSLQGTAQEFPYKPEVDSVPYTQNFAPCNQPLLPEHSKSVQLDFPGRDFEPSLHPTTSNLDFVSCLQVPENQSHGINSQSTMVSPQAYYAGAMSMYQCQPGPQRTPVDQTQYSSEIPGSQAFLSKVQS
Sequence of mAhR-hAhRLBD (P53762 2-791 partner, one chain of several): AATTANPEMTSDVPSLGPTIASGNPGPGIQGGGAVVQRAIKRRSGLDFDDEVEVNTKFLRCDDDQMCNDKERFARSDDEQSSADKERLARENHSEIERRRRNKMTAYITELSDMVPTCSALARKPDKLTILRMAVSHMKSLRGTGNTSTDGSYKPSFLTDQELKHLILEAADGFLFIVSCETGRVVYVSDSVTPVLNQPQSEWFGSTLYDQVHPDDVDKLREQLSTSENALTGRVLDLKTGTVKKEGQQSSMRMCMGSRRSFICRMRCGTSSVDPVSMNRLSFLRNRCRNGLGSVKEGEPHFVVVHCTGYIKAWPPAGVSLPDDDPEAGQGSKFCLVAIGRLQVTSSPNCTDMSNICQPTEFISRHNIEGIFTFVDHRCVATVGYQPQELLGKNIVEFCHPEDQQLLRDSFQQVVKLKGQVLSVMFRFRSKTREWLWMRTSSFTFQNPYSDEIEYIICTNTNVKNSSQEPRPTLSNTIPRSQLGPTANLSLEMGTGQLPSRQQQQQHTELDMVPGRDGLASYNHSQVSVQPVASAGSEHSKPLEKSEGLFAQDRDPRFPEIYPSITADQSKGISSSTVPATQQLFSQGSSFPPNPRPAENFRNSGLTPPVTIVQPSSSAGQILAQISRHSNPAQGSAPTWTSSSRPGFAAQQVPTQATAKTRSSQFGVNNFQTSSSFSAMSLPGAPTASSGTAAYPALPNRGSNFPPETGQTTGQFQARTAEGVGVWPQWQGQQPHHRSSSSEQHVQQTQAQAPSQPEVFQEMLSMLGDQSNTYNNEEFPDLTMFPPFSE

Question: What does the source list for `Cc1ccc2cc3c(ccc4ccccc43)c3c2c1CC3` [3-MC, 3-Methylcholanthrene]?
Answer: EC50 (human AhR (hAhR)): 14.6 ± 3.51 nM; maximal level of reporter gene induction (human AhR (hAhR); human HG2L6.1c1 cells): maximal induction was not observed; EC50 (mouse AhR (mAhR); [3]): 1.49 ± 0.01 nM

Question: Which “maximal level of reporter gene induction” value (human AhR (hAhR); human HG2L6.1c1 cells) does the source give for `O=c1cc(-c2ccccc2)oc2ccc3ccccc3c12` [BNF, β-naphthoflavone] here?
Answer: maximal induction was not observed

Question: And the EC50 (mouse AhR (mAhR); [3])?
Answer: 1.84 ± 1.14 nM

Question: With `O=Cc1c2[nH]c3ccccc3c2cc2[nH]c3ccccc3c12` [FICZ, 6-formylindolo[3,2-b]carbazole] as the compound, how does the EC50 (mouse AhR (mAhR); [3]) read?
Answer: 3.71 ± 0.85 nM

Question: With `O=C1Nc2ccccc2/C1=C1/Nc2ccccc2C1=O` [IR, indirubin] as the compound, how does the “more potent than TCDD, reporter gene induction” value (human AhR (hAhR); human HG2L6.1c1 cells) read?
Answer: ~ 7 fold

Question: What about the EC50 (mouse AhR (mAhR); mouse) of the same compound?
Answer: 15.6 ± 3.52 nM

Question: And the “greater potency than TCDD as inducer of AhR-dependent gene expression” value (AhR [1])?
Answer: 10 fold

Question: And the “induction of luciferase activity, IR versus TCDD” value (from here on “induction … IR versus TCDD”) (mutant A349T mAhR)?
Answer: significantly more efficacious inducer than TCDD

Question: What about the “maximal induction compared with wild-type mAhR” value (mutant A349T mAhR) of the same compound?
Answer: significantly increased above that of wild-type mAhR

Question: And the “induction … IR versus TCDD” value (hAhR)?
Answer: significantly more efficacious inducer than TCDD

Question: And the “less potent than TCDD as inducer of AhR-dependent gene expression” value (AhR [2])?
Answer: ~ 10 fold

Question: And the “induction … IR versus TCDD” value (mAhR-hAhRLBD)?
Answer: significantly more efficacious inducer than TCDD

Source: publication PMC6165432 (International Journal of Molecular Sciences, 2018)
